Drawing on paper PMC4257617, “Structures of trehalose synthase from Deinococcus radiodurans reveal that a closed conformation is involved in catalysis of the intramolecular isomerization” (Acta Crystallographica Section D: Biological Crystallography, 2014), this text covers IC50 and stoichiometry N for two molecules.

Broadly, the IC50 is the point on the concentration scale where inhibition reaches its midpoint. The stoichiometry N is the number of molecules, sites or subunits per partner or assembly.

The target in assay [1] is T1, DrTS (trehalose synthase) (Deinococcus radiodurans, UniProt I3NX86).
T1 construct: full length, about 552 residues plus vector linkers (residues 1-5 disordered); pET-23a(+), Ni-NTA purified, E. coli BL21 (DE3); homodimer
T1 sequence (I3NX86 1-552): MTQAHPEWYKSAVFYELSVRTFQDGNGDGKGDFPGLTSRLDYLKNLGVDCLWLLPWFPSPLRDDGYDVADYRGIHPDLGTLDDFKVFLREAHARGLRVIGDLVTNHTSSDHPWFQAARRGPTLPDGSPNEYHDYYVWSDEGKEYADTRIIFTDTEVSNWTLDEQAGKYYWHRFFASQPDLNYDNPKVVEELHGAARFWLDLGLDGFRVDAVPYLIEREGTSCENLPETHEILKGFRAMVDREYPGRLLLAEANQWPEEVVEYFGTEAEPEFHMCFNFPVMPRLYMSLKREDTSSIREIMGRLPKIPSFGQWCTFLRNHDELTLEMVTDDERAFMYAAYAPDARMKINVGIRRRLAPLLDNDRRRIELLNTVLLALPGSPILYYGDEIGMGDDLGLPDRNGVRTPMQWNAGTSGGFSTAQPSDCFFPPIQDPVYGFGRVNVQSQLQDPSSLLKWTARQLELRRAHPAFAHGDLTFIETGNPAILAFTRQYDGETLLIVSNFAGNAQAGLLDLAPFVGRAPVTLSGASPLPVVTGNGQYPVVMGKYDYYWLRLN
In words: isomerase assay (trehalose from maltose), HPLC with refractive-index detection. The assay is classed as biochemical.

In assay [2] the target is Deinococcus radiodurans trehalose synthase, wild type (Deinococcus radiodurans). Briefly: AUC; sedimentation velocity, 293 K, 42 000 rev/min; enzyme 0.1 mg/ml in 20 mM Tris-HCl pH 7.5, 100 mM NaCl; c(s) distribution with SEDFIT.

Turning to `NC(CO)(CO)CO` [Tris], the midpoint of inhibition in assay [1], the IC50, lay at 4.88 mM.

As to “Deinococcus radiodurans trehalose synthase, wild type (enzyme)”, the stoichiometry N in assay [2] was 2.
